The supplement of paper PMC13380429

Key:
Settings in all cases: 72 h
HepG2 [1] = assay: cell viability relative to DMSO; higher = less toxic
Vero E6 [2] = assay: as above
Caco-2 [3] = assay: as above
Calu-3 [4] = assay: as above
U2OS [5] = assay: as above
HepG2 [6] = assay: relative viability EC50 (midpoint between 100% and the lowest measured viability); higher = less toxic
Vero E6 [7] = assay: as above
Caco-2 [8] = assay: as above
Calu-3 [9] = assay: as above
U2OS [10] = assay: as above
HepG2 [11] = assay: drug sensitivity score (DSS) for viability; higher = more toxic; extreme values may be limits of the assay
Vero E6 [12] = assay: as above
Caco-2 [13] = assay: as above
Calu-3 [14] = assay: as above
U2OS [15] = assay: as above

Row | SMILES | cell viability (HepG2 [1]; 1 nM) [%] | cell viability (HepG2 [1]; 10 nM) [%] | cell viability (HepG2 [1]; 100 nM) [%] | cell viability (HepG2 [1]; 1000 nM) [%] | cell viability (HepG2 [1]; 10000 nM) [%] | cell viability (Vero E6 [2]; 1 nM) [%] | cell viability (Vero E6 [2]; 10 nM) [%] | cell viability (Vero E6 [2]; 100 nM) [%] | cell viability (Vero E6 [2]; 1000 nM) [%] | cell viability (Vero E6 [2]; 10000 nM) [%] | cell viability (Caco-2 [3]; 1 nM) [%] | cell viability (Caco-2 [3]; 10 nM) [%] | cell viability (Caco-2 [3]; 100 nM) [%] | cell viability (Caco-2 [3]; 1000 nM) [%] | cell viability (Caco-2 [3]; 10000 nM) [%] | cell viability (Calu-3 [4]; 1 nM) [%] | cell viability (Calu-3 [4]; 10 nM) [%] | cell viability (Calu-3 [4]; 100 nM) [%] | cell viability (Calu-3 [4]; 1000 nM) [%] | cell viability (Calu-3 [4]; 10000 nM) [%] | cell viability (U2OS [5]; 1 nM) [%] | cell viability (U2OS [5]; 10 nM) [%] | cell viability (U2OS [5]; 100 nM) [%] | cell viability (U2OS [5]; 1000 nM) [%] | cell viability (U2OS [5]; 10000 nM) [%] | relative viability EC50 (HepG2 [6]) [µM] | relative viability EC50 (Vero E6 [7]) [µM] | relative viability EC50 (Caco-2 [8]) [µM] | relative viability EC50 (Calu-3 [9]) [µM] | relative viability EC50 (U2OS [10]) [µM] | drug sensitivity score (HepG2 [11]) | drug sensitivity score (Vero E6 [12]) | drug sensitivity score (Caco-2 [13]) | drug sensitivity score (Calu-3 [14]) | drug sensitivity score (U2OS [15])
1 | CN1C(=O)C(N2CCCCC2)S/C1=C\C(=O)O (stereo not given) [ozolinone] | 89.5 | 107 | 104 | 87.1 | 105 | 97.1 | 103 | 97 | 102 | 117 | 113 | 96.7 | 92.1 | 105 | 114 | 102 | 93.9 | 94.1 | 93.5 | 95 | 95.5 | 97.5 | 102 | 99.6 | 100 | > 10 | > 10 | > 10 | > 10 | > 10 | 0 | 0 | 0 | 0 | 0
2 | C#CCN(C)Cc1ccccc1 [pargyline] | 98.7 | 96.2 | 109 | 89.7 | 102 | 96.4 | 96.3 | 92.7 | 93.1 | 107 | 96 | 93 | 96.3 | 98.6 | 103 | 93.5 | 97.4 | 95.4 | 89.3 | 102 | 99.2 | 101 | 99.9 | 102 | 103 | > 10 | > 10 | > 10 | > 10 | > 10 | 0 | 0 | 0 | 0 | 0
3 | FC(F)(F)C(F)(F)C(F)(F)C(F)(F)C(F)(F)C(F)(F)C(F)(F)C(F)(F)Br [perflubron] | 104 | 102 | 99.9 | 96.4 | 105 | 109 | 101 | 102 | 92.4 | 96.7 | 97 | 98.9 | 91.8 | 103 | 91.2 | 87.9 | 108 | 98.1 | 102 | 93.4 | 98.1 | 100 | 94.1 | 104 | 97.1 | > 10 | > 10 | > 10 | > 10 | > 10 | 0 | 0 | 0 | 0 | 0
4 | Nc1ccc(/N=N/c2ccccc2)c(N)n1 [phenazopyridine] | 91.1 | 91.8 | 105 | 89.4 | 100 | 109 | 88.6 | 102 | 102 | 82.7 | 85.4 | 102 | 97 | 99.8 | 94 | 91.9 | 102 | 88.1 | 99.1 | 95.8 | 94 | 98.4 | 95.7 | 99.2 | 103 | > 10 | > 10 | > 10 | > 10 | > 10 | 0 | 0.3 | 0 | 0 | 0
5 | CN1C(CSCC(F)(F)F)Nc2cc(Cl)c(S(N)(=O)=O)cc2S1(=O)=O (stereo not given) [polythiazide] | 93.7 | 110 | 99.6 | 103 | 106 | 91.7 | 98.8 | 86.6 | 96.8 | 108 | 88.1 | 90.5 | 95.2 | 94.9 | 93 | 95.7 | 98.5 | 107 | 101 | 109 | 98.4 | 97.5 | 104 | 96.2 | 100 | > 10 | > 10 | > 10 | > 10 | > 10 | 0 | 0 | 0 | 0 | 0
6 | CCCCOc1ccc(OCCCN2CCOCC2)cc1 [pramoxine] | 97.1 | 98.3 | 98.1 | 94.7 | 98.9 | 103 | 97.3 | 98.8 | 102 | 103 | 105 | 109 | 97.8 | 95.8 | 98 | 104 | 99.1 | 87.1 | 95.1 | 102 | 105 | 105 | 104 | 102 | 99.3 | > 10 | > 10 | > 10 | > 10 | > 10 | 0 | 0 | 0 | 0 | 0
